From US20260041679A1, “METHOD OF TREATING HYPERTENSION WITH THE ALDOSTERONE SYNTHASE INHIBITOR BAXDROSTAT” (CINCOR PHARMA, INC., priority 2022, published 2026)
Read-outs that look alike come from different tables or passages of the source. Marks after values point to notes of the source that are not given here.

Experiments:
[1] = biological target: T1, aldosterone synthase (Homo sapiens, UniProt P19099); test: Multiple ascending dose study, pharmacodynamics: plasma aldosterone, cortisol, electrolytes (Example 2); assay type: in vivo
T1 construct: Pharmacodynamic measurements included plasma aldosterone, cortisol, and electrolytes; endogenous in cells; host or cells: human subjects in vivo (healthy volunteers; resistant hypertension patients)
T1 sequence (P19099 25-503): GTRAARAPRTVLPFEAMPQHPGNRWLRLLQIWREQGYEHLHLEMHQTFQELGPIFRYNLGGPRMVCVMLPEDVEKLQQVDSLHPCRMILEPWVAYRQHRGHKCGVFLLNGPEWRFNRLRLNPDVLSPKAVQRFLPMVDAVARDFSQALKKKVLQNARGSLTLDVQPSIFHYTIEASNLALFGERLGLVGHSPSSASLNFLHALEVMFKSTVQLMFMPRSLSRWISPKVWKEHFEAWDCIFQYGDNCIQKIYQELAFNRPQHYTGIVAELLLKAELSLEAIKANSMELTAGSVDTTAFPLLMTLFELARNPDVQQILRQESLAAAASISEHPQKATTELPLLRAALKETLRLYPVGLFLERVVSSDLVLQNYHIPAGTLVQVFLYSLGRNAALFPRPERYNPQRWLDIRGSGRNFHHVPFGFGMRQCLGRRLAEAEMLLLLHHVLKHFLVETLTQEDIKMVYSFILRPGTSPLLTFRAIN
Description: This randomized, double-blind, placebo-controlled phase 1 study evaluated the safety, pharmacokinetics, and pharmacodynamics of multiple ascending doses of baxdrostat in healthy volunteers. Fifty-six subjects were randomized to receive oral baxdrostat (0.5, 1.5, 2.5, or 5.0 mg) or placebo once daily for ten days and were placed on either a low salt or normal salt diet for the duration of the study. In particular, subjects were randomized into 5 cohorts to receive baxdrostat or placebo once daily for 10 days. Cohorts 1 and 2 were placed on a low salt diet to stimulate aldosterone production and were administered 2.5 or 5.0 mg oral baxdrostat, respectively. Cohorts 1 and 2 also underwent an adrenocorticotropic hormone (ACTH) challenge to increase aldosterone and cortisol levels to evaluate the specificity of baxdrostat for targeting aldosterone synthase. Cohorts 3, 4, and 5 were placed on a normal salt diet and were administered 1.5, 2.5, or 0.5 mg oral baxdrostat, respectively. Blood samples were collected prior to and after dosing on days 1 and 10 for measurement of plasma baxdrostat concentrations to characterize single-dose and steady-state pharmacokinetics. Pharmacodynamic measurements included plasma aldosterone, cortisol, and electrolytes. Safety assessments included physical examination, electrocardiograms, orthostatic vital signs, and clinical laboratory evaluations.

[2] = Study 121: adverse events, safety population
Description: In this study, adverse events of special interest (AESIs) were events of hypotension, low sodium levels or elevated potassium levels that required clinical intervention.

[3] = Pharmacokinetics in subjects with varying degrees of renal function (Example 4); assay type: in vivo, human; conditions: for half-life / Tmax / AUC(0-inf) / AUC(0-t) / Cmax / Vd/F: human, plasma, oral, 10 mg; for AUC(0-inf): read-out: AUC0-inf, mean (SD); for AUC(0-t): read-out: AUC0-last, mean (SD); for Cmax: read-out: Cmax, mean (SD); for Vd/F: read-out: Vz/F, mean (SD)
Description: This phase 1, open-label, single-dose, parallel-group study was designed in accordance with the FDA guidance for the design and analysis of studies that assess the influence of impaired renal function on PK. Subjects were enrolled into three renal function groups defined based on eGFR calculated using the Chronic Kidney Disease Epidemiology Collaboration equation as follows: […]
Control(normal renal function or mild renal impairment:eGFR≥60 mL/min) • Moderate to severe renal impairment (eGFR 15 to 59 mL/min) • Kidney failure (eGFR<15 mL/min, including subjects on dialysis)
All subjects received a single 10 mg dose of baxdrostat in an open-label manner. […] All subjects were required to fast for a minimum of 10 hours prior to baxdrostat administration. They were then dosed at 8:00 AM (±2 hours) with two 5 mg tablets administered with approximately 240 mL of water. Subjects continued fasting for a minimum of 4 hours after dosing. No other medications were permitted within 2 hours prior to dosing and for 2 hours after dosing with baxdrostat. Subjects on dialysis received the study drug on a non-dialysis day. Blood and urine sample collection for PK analysis continued for 7 days and was proceeded by a follow-up phone call 3±1 days after clinic discharge.
Plasma and urine samples were analyzed to measure concentrations of baxdrostat and its primary metabolite (baxdrostat-M) using a validated LC-MS/MS method. “Baxdrostat-M” as used herein refers a compound having the following structure:
Blood and urine samples were collected prior to and after dosing for measurement of plasma and urine baxdrostat and baxdrostat-M concentrations to characterize maximum observed plasma concentration (Cmax), time to Cmax (Tmax), AUC0-last, and AUC0-inf for baxdrostat and baxdrostat-M. The t1/2, CL/F, and V/F were calculated for plasma baxdrostat only. Urine PK parameters included the cumulative amount of baxdrostat and baxdrostat-M excreted in urine (Ae), renal clearance (CLR) of baxdrostat and baxdrostat-M, and fraction of dose excreted renally (Fe) for baxdrostat.

[4] = control eGFR ≥60 mL/min, single 10 mg
[5] = kidney failure eGFR <15 mL/min, single 10 mg
[6] = moderate to severe renal impairment eGFR 15-59 mL/min, single 10 mg

## CCC(=O)N[C@@H]1CCCc2c(-c3ccc4c(c3)CCC(=O)N4C)cncc21 [baxdrostat, (R)—N-(4-(1-methyl-2-oxo-1,2,3,4-tetrahydroquinolin-6-yl)-5,6,7,8-tetrahydroisoquinolin-8-yl) propionamide]
[1]; Day 10
  plasma aldosterone, reduction: 51-73%
[1]; doses ≥1.5 mg, regardless of diet
  plasma aldosterone: dose-dependent reduction of plasma aldosterone
[1]; once daily, 10 days
  plasma cortisol: no meaningful impact on plasma cortisol
  plasma sodium levels: mild dose-dependent decreases in plasma sodium levels
  potassium levels: increases in potassium levels
[2]; 0.5 mg
  TESAE, Number of Subjects (Number of Events): 0 (0) subjects (events)
  TESAE: General disorders and administration site conditions: 0 subjects (events)
  TESAE: Infections and infestations: 0 subjects (events)
  TESAE: Metabolism and nutrition disorders: 0 subjects (events)
  TESAE: Musculoskeletal and connective tissue disorders: 0 subjects (events)
  TESAE: Nervous system disorders: 0 subjects (events)
  TESAE: Renal and urinary disorders: 0 subjects (events)
  TESAE: Respiratory, thoracic and mediastinal disorders: 0 subjects (events)
  adverse events of special interest (AESIs), patients per arm: 1
  percentage of patients who experienced TEAEs: 34.8%
[2]; 1 mg
  TESAE, Number of Subjects (Number of Events): 2 (3) subjects (events)
  TESAE: Infections and infestations: 1 (1) subjects (events)
  TESAE: Intervertebral disc degeneration: 1 (1) subjects (events)
  TESAE: Musculoskeletal and connective tissue disorders: 1 (1) subjects (events)
  TESAE: Nephrolithiasis: 1 (1) subjects (events)
  TESAE: Pyelonephritis: 1 (1) subjects (events)
  TESAE: Renal and urinary disorders: 1 (1) subjects (events)
  percentage of patients who experienced TEAEs: 52.2%
[2]; 1 mg arm
  adverse events of special interest (AESIs), patients per arm: 5
[2]; 2 mg
  TESAE, Number of Subjects (Number of Events): 6 (12) subjects (events)
  TESAE: Acute kidney injury: 1 (1) subjects (events)
  TESAE: Acute respiratory failure: 1 (1) subjects (events)
  TESAE: Arthralgia: 1 (1) subjects (events)
  TESAE: Cellulitis: 1 (1) subjects (events)
  TESAE: Dehydration: 1 (1) subjects (events)
  TESAE: Dizziness: 1 (1) subjects (events)
  TESAE: Hyperglycaemia: 1 (1) subjects (events)
  TESAE: Hyperkalemia: 1 (1) subjects (events)
  TESAE: Hyponatraemia: 1 (1) subjects (events)
  TESAE: Infections and infestations: 2 (2) subjects (events)
  TESAE: Metabolism and nutrition disorders: 1 (4) subjects (events)
  TESAE: Musculoskeletal and connective tissue disorders: 1 (1) subjects (events)
  TESAE: Nervous system disorders: 2 (2) subjects (events)
  TESAE: Renal and urinary disorders: 1 (1) subjects (events)
  TESAE: Respiratory failure: 1 (1) subjects (events)
  TESAE: Respiratory, thoracic and mediastinal disorders: 2 (2) subjects (events)
  TESAE: Syncope: 1 (1) subjects (events)
  TESAE: Urinary tract infection: 1 (1) subjects (events)
  percentage of patients who experienced TEAEs: 47.8%
[2]; 2 mg arm
  adverse events of special interest (AESIs), patients per arm: 2
[2]; Study 121
  adrenal insufficiency: no reported cases of adrenal insufficiency
  deaths and relatedness of SAEs: no deaths in the study and all SAEs were assessed by the investigators to be unrelated to baxdrostat
[2]; once daily for 12 weeks
  tolerability: well tolerated
[3]; control and moderate to severe renal impairment groups
  recovered unchanged in the urine: Approximately 12%
[3]; [4]
  CL/F, mean (SD): 3.06 (0.9) L/h
  Fe (urine), mean (CV %): 12.53 (38.1) %
  AUC(0-inf): 3530 ng·h/mL
  AUC(0-t): 3380 ng·h/mL
  Cmax: 108 ng/mL
  Vd/F: 146 L
[3]; across renal function groups, read-out: average half-life
  half-life: 30 to 42 h
[3]; all renal function groups, single 10 mg, read-out: median Tmax
  Tmax: ≤ 1.5 h
[3]; control eGFR ≥60 mL/min, single 10 mg, read-out: Tmax, mean (SD)
  Tmax: 2.1 h
[3]; control eGFR ≥60 mL/min, single 10 mg, read-out: t1/2, mean (SD) (converted)
  half-life: 35.6 h
[3]; [5]
  AUC(0-inf): 2660 ng·h/mL
  AUC(0-t): 2570 ng·h/mL
  Cmax: 96 ng/mL
  Vd/F: 200 L
  CL/F, mean (SD): 5.07 (2.9) L/h
  Fe (urine), mean (CV %): 0.91 (60.7)* %
  t1/2, mean (SD): 29.70 (10.5) h
[3]; kidney failure eGFR <15 mL/min, single 10 mg, read-out: Tmax, mean (SD)
  Tmax: 1.63 h
[3]; [6]
  AUC(0-inf): 4340 ng·h/mL
  AUC(0-t): 4010 ng·h/mL
  Cmax: 110 ng/mL
  Vd/F: 142 L
  CL/F, mean (SD): 2.60 (1.0) L/h
  Fe (urine), mean (CV %): 11.81 (26.0) %
[3]; moderate to severe renal impairment eGFR 15-59 mL/min, single 10 mg, read-out: Tmax, mean (SD)
  Tmax: 1.82 h
[3]; moderate to severe renal impairment eGFR 15-59 mL/min, single 10 mg, read-out: t1/2, mean (SD) (converted)
  half-life: 42.1 h
[3]; kidney failure group
  renal excretion: minimal renal excretion
[3]; pairwise comparisons versus control
  effect of renal impairment on Cmax, AUC, half-life, apparent plasma clearance, renal clearance: no meaningful effect
